{
  "source": "patent US9650400B2",
  "about": "“Voriconazole sodium phosphate hydrates and polymorphs thereof” (SHAANXI SYNTHETIC PHARMACEUTICAL CO., LTD., priority 2013, dated 2017)",
  "key": {"[1]": {"assay": "Pharmacokinetic experiments in rabbits (intravenous, equimolar)", "type": "in vivo", "conditions": "rabbit", "protocol": "Two rabbits of same body weight were intravenously administered equimolar voriconazole sodium phosphate and voriconazole, respectively, and an equal volume of blood was drawn from the rabbits at different time intervals, and a metabolism status in body was determined."}, "[2]": {"assay": "Hydroscopicity comparison (moisture absorption, 25° C. and 80% humidity, 24 hours)", "type": "physicochemical"}, "[3]": {"type": "physicochemical", "protocol": "Sample injection was carried out by using a sample prepared by allowing the sample in Example 17 to absorb moisture, and the results are shown in Table 5."}, "[4]": {"tested_on": "Aspergillus fumigatus", "assay": "Diffused aspergillosis in guinea pigs", "type": "in vivo", "protocol": "(§1) In all experiments, particular pathogen-free guinea pigs (body weight of 400-500 g) were used. A conduit was placed in the left jugular vein of the […] infected with Aspergillus fumigatus (4,000 CFU/g body weight) or Candida albicans (4,000 CFU/g body weight) via the lateral veins of penis of the animal or via the implanted conduit. One hour after infection, the animals were subject to an intravenous therapy (5 mg/kg/day). The mean survival time (MST) and the percent survival (% sur) were recorded for each group experimental animals (the number of each group of experimental animals is listed in column “N”) within respective number of days. The amounts of […] in deep tissues (such as liver, spleen, kidney, lung, or brain) were investigated in animals which died during the experiment and in animals which survived the experiment but were later sacrificed in respective groups. “% neg” in Table 1 represents the percent of deep tissues that were culture-negative after treatment."}, "[5]": {"tested_on": "Candida albicans", "assay": "Diffused candidiasis in guinea pigs", "type": "in vivo", "conditions": "intravenous 5 mg/kg/day", "protocol": "as §1"}, "[6]": {"conditions": "Aspergillus fumigatus, intravenous 5 mg/kg/day"}},
  "note": "Where two headings read alike, the source gives them in different places.",
  "data": [
    {"compound": "C[C@@H](c1ncncc1F)[C@](O)(Cn1cncn1)c1ccc(F)cc1F", "note": "[voriconazole]", "values": [
      {"measurement": "parent nucleus (voriconazole) in blood, peak area", "setting": "[1]; in vivo, iv, 30 min", "value": 378.34, "unit": "peak area"},
      {"measurement": "parent nucleus (voriconazole) in blood, peak area", "setting": "[1]; in vivo, iv, 60 min", "value": 321.69, "unit": "peak area"},
      {"measurement": "parent nucleus (voriconazole) in blood, peak area", "setting": "[1]; in vivo, iv, 120 min", "value": 150.45, "unit": "peak area"},
      {"measurement": "parent nucleus (voriconazole) in blood, peak area", "setting": "[1]; in vivo, iv, 150 min", "value": 78.35, "unit": "peak area"},
      {"measurement": "parent nucleus (voriconazole) in blood, peak area", "setting": "[1]; in vivo, iv, 200 min", "value": 29.71, "unit": "peak area"},
      {"measurement": "parent nucleus (voriconazole) in blood, peak area", "setting": "[1]; in vivo, iv, 250 min", "value": 0.234, "unit": "peak area"}
    ]},
    {"compound": "Voriconazole phosphate anhydrate [reference compound]", "values": [
      {"measurement": "Sample weight, 0 hour", "setting": "[2]", "value": 0.3938, "unit": "g"},
      {"measurement": "Sample weight, 24 hours", "setting": "[2]; 24 hours", "value": 0.4627, "unit": "g"},
      {"measurement": "hydroscopicity (in words)", "setting": "[2]; 24 hours", "value": "significant hydroscopicity"},
      {"measurement": "stability under highly humid conditions (in words)", "setting": "[3]", "value": "extremely unstable"},
      {"measurement": "Individual impurity, by weight", "setting": "[3]; 0 hour", "value": "Individual impurity 0.07%"},
      {"measurement": "Total impurity, by weight", "setting": "[3]; 0 hour", "value": "Total impurity 0.10%"}
    ]},
    {"compound": "voriconazole sodium phosphate", "values": [
      {"measurement": "potency against fungal infection (in words)", "setting": "[4]; Aspergillus fumigatus or Candida albicans infection, conclusion from Table 7", "value": "very potent against fungal infection"},
      {"measurement": "metabolism in body (in words)", "setting": "[1]; intravenous", "value": "can be metabolized into voriconazole in body"},
      {"measurement": "Prodrug in blood, peak area", "setting": "[1]; intravenous, 30 min", "value": 235.92, "unit": "peak area"},
      {"measurement": "parent nucleus (voriconazole) in blood, peak area", "setting": "[1]; intravenous, 30 min", "value": 0.324, "unit": "peak area"},
      {"measurement": "Prodrug in blood, peak area", "setting": "[1]; intravenous, 60 min", "value": 143.51, "unit": "peak area"},
      {"measurement": "parent nucleus (voriconazole) in blood, peak area", "setting": "[1]; intravenous, 60 min", "value": 86.42, "unit": "peak area"},
      {"measurement": "Prodrug in blood, peak area", "setting": "[1]; intravenous, 120 min", "value": 98.59, "unit": "peak area"},
      {"measurement": "parent nucleus (voriconazole) in blood, peak area", "setting": "[1]; intravenous, 120 min", "value": 158.32, "unit": "peak area"},
      {"measurement": "Prodrug in blood, peak area", "setting": "[1]; intravenous, 150 min", "value": 2.045, "unit": "peak area"},
      {"measurement": "Prodrug in blood, peak area", "setting": "[1]; intravenous, 200 min", "value": 0, "unit": "peak area"},
      {"measurement": "parent nucleus (voriconazole) in blood, peak area", "setting": "[1]; intravenous, 200 min", "value": 130.38, "unit": "peak area"},
      {"measurement": "Prodrug in blood, peak area", "setting": "[1]; intravenous, 250 min", "value": 0, "unit": "peak area"},
      {"measurement": "parent nucleus (voriconazole) in blood, peak area", "setting": "[1]; intravenous, 250 min", "value": 69.23, "unit": "peak area"}
    ]},
    {"compound": "voriconazole sodium phosphate hydrate", "values": [
      {"measurement": "Sample weight, 0 hour", "setting": "[2]", "value": 0.3318, "unit": "g"},
      {"measurement": "Sample weight, 24 hours", "setting": "[2]; 24 hours", "value": 0.3441, "unit": "g"},
      {"measurement": "Weight increase by moisture absorption, by weight", "setting": "[2]; 24 hours", "value": 3.6, "unit": "%"},
      {"measurement": "hydroscopicity (in words)", "setting": "[2]; 24 hours", "value": "mild hydroscopicity"},
      {"measurement": "MST (mean survival time)", "setting": "[4]; Aspergillus fumigatus 4,000 CFU/g body weight, intravenous 5 mg/kg/day", "value": 6.2, "unit": "days"},
      {"measurement": "% neg (percent of deep tissues culture-negative after treatment)", "setting": "[4]; [6]", "value": 70, "unit": "%"},
      {"measurement": "% sur (percent survival)", "setting": "[4]; [6]", "value": 66.4, "unit": "%"},
      {"measurement": "g (liver): CFU/g in culture-positive liver", "setting": "[4]; [6]", "value": 3.5, "unit": "mean log 10 CFU/g"},
      {"measurement": "MST (mean survival time)", "setting": "[5]; Candida albicans 4,000 CFU/g body weight", "value": 9.5, "unit": "days"},
      {"measurement": "% neg (percent of deep tissues culture-negative after treatment)", "setting": "[5]; Candida albicans", "value": 69, "unit": "%"},
      {"measurement": "% sur (percent survival)", "setting": "[5]; Candida albicans", "value": 76.9, "unit": "%"},
      {"measurement": "g (liver): CFU/g in culture-positive liver", "setting": "[5]; Candida albicans", "value": 0, "unit": "mean log 10 CFU/g"},
      {"measurement": "Individual impurity, by weight", "setting": "[3]; 0 hour", "value": "Individual impurity 0.06%"},
      {"measurement": "Total impurity, by weight", "setting": "[3]; 0 hour", "value": "Total impurity 0.09%"},
      {"measurement": "Individual impurity, by weight", "setting": "[3]; 24 hour moisture absorption", "value": "Individual impurity 0.08%"},
      {"measurement": "Total impurity, by weight", "setting": "[3]; 24 hour moisture absorption", "value": "Total impurity 0.13%"},
      {"measurement": "change in impurity after absorbing moisture (in words)", "setting": "[3]; 24 hours", "value": "minor change in impurity"}
    ]}
  ]
}
